# Reference: patent publication US4994376A, “Detection of bacteroides gingivalis” (priority 1987, dated 1991)
# Several values for one entry are separate records, joined by “and”; a condition that tells them apart may be missing. Equal entries are not always repeated. Where two headings read alike, the source gives them in different places. Numbered stars: 1 amine (or outer) side, 2 acyl side, 3 side chain; on linkers, the order of the positions; unused ones are H or OH. Peptide text beside a SMILES is read from it. CO = O=C([*:1])[*:2]
# How the values were obtained:
# Capnocytophaga sp. = type: biochemical
# Experimental: (§1) The enzyme activity was measured by the chromogenic properties of N-CBz-glycyl-glycyl-L-arginine-β-naphthylamide which upon hydrolysis gives a visible color. The aminopeptidase activities listed in the table reflect the nanomoles of β-naphthylamine liberated after 60 minutes under the conditions described below.
# (§2) After mixing, the solution is incubated for 1 hour at 37° C. and then 0.4 ml of a solution of stabilized diazonium salt, Fast Garnet GBC (0.5 mg/ml) in a 1M acetic acid buffer (pH 4.2), containing 10% Tween 20 was added to the mixture. After standing for 15 minutes at room temperature, the color reaction can be read manually by comparison with standard solutions or the absorbancy can be determined using a spectrophotometer at 525 nm. The reaction mixture without enzyme solution is used as a control.
# C. ochracea = type: biochemical
# Experimental: as §1, §2
# [1] = tested on: Capnocytophaga gingivalis; type: biochemical
# Experimental: as §1, §2
# Veillonella alcalesens = experiment: Aminopeptidase activity on β-naphthylamide substrates; type: biochemical
# Experimental: as §1, §2
# (§3) The enzyme activity and the aminopeptidase activities were determined in the manner described above in regard to Table I.
# L. fermentum = experiment: as above; type: biochemical
# Experimental: as §1, §2, §3
# A. suis = experiment: as above; type: biochemical
# Experimental: as §1, §2, §3
# S. salivarius = experiment: as above; type: biochemical
# Experimental: as §1, §2, §3
# F. periodonticum = experiment: as above; type: biochemical
# Experimental: as §1, §2, §3
# Haemophilus aphrophilus = experiment: as above; type: biochemical
# Experimental: as §1, §2, §3
# Lactobacillus casei = experiment: as above; type: biochemical
# Experimental: as §1, §2, §3
# A. equuli = experiment: as above; type: biochemical
# Experimental: as §1, §2, §3
# Campylobacter sputorum = type: biochemical
# Experimental: as §1, §2, §3
# Veillonella sp. = type: biochemical
# Experimental: as §1, §2, §3
# Eikenella corrodens = type: biochemical
# Experimental: as §1, §2, §3
# A. viscosus = type: biochemical
# Experimental: as §1, §2, §3
# Actinomyces israeli = type: biochemical
# Experimental: as §1, §2, §3
# Fusobacterium nucleatum = type: biochemical
# Experimental: as §1, §2, §3
# S. mutans = type: biochemical
# Experimental: as §1, §2, §3
# V. parvula = type: biochemical
# Experimental: as §1, §2, §3
# "Anaerobic vibrio" = type: biochemical
# Experimental: as §1, §2, §3
# A. seminis = type: biochemical
# Experimental: as §1, §2, §3
# B. denticola = experiment: Aminopeptidase activity on β-naphthylamide substrates; type: biochemical
# Experimental: as §1, §2
# B. melaninogenicus = experiment: as above; type: biochemical
# Experimental: as §1, §2
# C. sputigena = experiment: as above; type: biochemical
# Experimental: as §1, §2
# B. corporis = experiment: as above; type: biochemical
# Experimental: as §1, §2
# B. intermedius = experiment: as above; type: biochemical
# Experimental: as §1, §2
# [2] = tested on: B. gingivalis N-CBz-Gly-Gly-Arg peptidase; experiment: Effect of inhibitors and enhancers on B. gingivalis peptidase activity; type: biochemical, Bacteroides gingivalis; conditions: for Inhibition of B. gingivalis enzyme activity by metals: high concentrations
# B. mel. ss. intermedius = type: biochemical
# Experimental: as §1, §2
# S. sanguis = type: biochemical
# Experimental: as §1, §2, §3
# B. levii = type: biochemical
# Experimental: as §1, §2
# Bacteroides gingivalis = type: biochemical
# Experimental: as §1, §2
# [3] = strain ATCC 11748, β-naphthylamine liberated after 60 minutes, 37° C.
# [4] = strain ATCC 11581, β-naphthylamine liberated after 60 minutes, 37° C.
# [5] = strain ATCC 15557, β-naphthylamine liberated after 60 minutes, 37° C.
# [6] = strain ATCC 9759, β-naphthylamine liberated after 60 minutes, 37° C.
# [7] = strain ATCC 25975, β-naphthylamine liberated after 60 minutes, 37° C.
# [8] = strain EK1-15, β-naphthylamine liberated after 60 minutes, 37° C.
# [9] = strain ATCC 13252, β-naphthylamine liberated after 60 minutes, 37° C.
# [10] = strain ATCC 19415, β-naphthylamine liberated after 60 minutes, 37° C.
# [11] = strain NCTC 5908, β-naphthylamine liberated after 60 minutes, 37° C.
# [12] = strain ATCC 7469, β-naphthylamine liberated after 60 minutes, 37° C.
# [13] = strain ATCC 11578, β-naphthylamine liberated after 60 minutes, 37° C.
# [14] = strain ATCC 11582, β-naphthylamine liberated after 60 minutes, 37° C.
# [15] = strain ATCC 19392, β-naphthylamine liberated after 60 minutes, 37° C.
# [16] = strain D31A-24, β-naphthylamine liberated after 60 minutes, 37° C.
# [17] = strain ATCC 33185, β-naphthylamine liberated after 60 minutes, 37° C.
# [18] = strain ATCC 25845, β-naphthylamine liberated after 60 minutes, 37° C.
# [19] = strain ATCC 33123, β-naphthylamine liberated after 60 minutes, 37° C.
# [20] = strain ATCC 33547, β-naphthylamine liberated after 60 minutes, 37° C.
# [21] = strain ATCC 25611, β-naphthylamine liberated after 60 minutes, 37° C.
compound,measurement,setting,value
"N=C(N)NCCC[C@H](NC(=O)[C@@H](N)CCCNC(=N)N)C(=O)O [Arg-Arg, Arginyl-arginine] (H-Arg-Arg-OH)",Aminopeptidase activity,Capnocytophaga sp.,0
same,Aminopeptidase activity,C. ochracea,71
same,Aminopeptidase activity,[1],65
same,Aminopeptidase activity,Veillonella alcalesens; [3],0 nmol
same,Aminopeptidase activity,L. fermentum; [4],0 nmol
same,Aminopeptidase activity,A. suis; [5],0 nmol
same,Aminopeptidase activity,S. salivarius; [6],24 nmol
same,Aminopeptidase activity,S. salivarius; [7],15 nmol
same,Aminopeptidase activity,F. periodonticum; [8],1 nmol
same,Aminopeptidase activity,Haemophilus aphrophilus; [9],1 nmol
same,Aminopeptidase activity,Haemophilus aphrophilus; [10],1 nmol
same,Aminopeptidase activity,Haemophilus aphrophilus; [11],0 nmol
same,Aminopeptidase activity,Lactobacillus casei; [12],1 nmol
same,Aminopeptidase activity,Lactobacillus casei; [13],1 nmol
same,Aminopeptidase activity,Lactobacillus casei; [14],0 nmol
same,Aminopeptidase activity,A. equuli; [15],0 nmol
same,Aminopeptidase activity,Campylobacter sputorum,1
same,Aminopeptidase activity,Veillonella sp.,0
same,Aminopeptidase activity,Eikenella corrodens,0
same,Aminopeptidase activity,A. viscosus,0
same,Aminopeptidase activity,Actinomyces israeli,0
same,Aminopeptidase activity,Fusobacterium nucleatum,1
same,Aminopeptidase activity,Fusobacterium nucleatum; [16],2 nmol
same,Aminopeptidase activity,S. mutans,1
same,Aminopeptidase activity,V. parvula,0
same,Aminopeptidase activity,"""Anaerobic vibrio""",0
same,Aminopeptidase activity,A. seminis,0
same,Aminopeptidase activity,B. denticola; [17],16 nmol
same,Aminopeptidase activity,B. melaninogenicus; [18],24 nmol
same,Aminopeptidase activity,C. sputigena; [19],18 nmol
same,Aminopeptidase activity,B. corporis; [20],4 nmol
same,Aminopeptidase activity,B. intermedius; [21],15 nmol
"C[S+](C)[O-] [DMSO, dimethyl-sulfoxide]",Inhibition of B. gingivalis N-CBz-glycyl-glycyl-arginylpeptidase enzyme activity,[2],inhibited
"N=C(N)NCCC[C@H](NC(=O)CN)C(=O)O [Gly-Arg, Glycyl-arginine] (H-Gly-Arg-OH)",Aminopeptidase activity,Capnocytophaga sp.,20
same,Aminopeptidase activity,B. mel. ss. intermedius,13 and 9
same,Aminopeptidase activity,C. ochracea,11
same,Aminopeptidase activity,[1],6
same,Aminopeptidase activity,Veillonella alcalesens; [3],0 nmol
same,Aminopeptidase activity,L. fermentum; [4],0 nmol
same,Aminopeptidase activity,A. suis; [5],0 nmol
same,Aminopeptidase activity,S. salivarius; [6],0 nmol
same,Aminopeptidase activity,S. salivarius; [7],0 nmol
same,Aminopeptidase activity,F. periodonticum; [8],0 nmol
same,Aminopeptidase activity,Haemophilus aphrophilus; [9],0 nmol
same,Aminopeptidase activity,Haemophilus aphrophilus; [10],0 nmol
same,Aminopeptidase activity,Haemophilus aphrophilus; [11],0 nmol
same,Aminopeptidase activity,Lactobacillus casei; [12],0 nmol
same,Aminopeptidase activity,Lactobacillus casei; [13],0 nmol
same,Aminopeptidase activity,Lactobacillus casei; [14],1 nmol
same,Aminopeptidase activity,A. equuli; [15],0 nmol
same,Aminopeptidase activity,Campylobacter sputorum,0
same,Aminopeptidase activity,Veillonella sp.,0
same,Aminopeptidase activity,Eikenella corrodens,2
same,Aminopeptidase activity,S. sanguis,3
same,Aminopeptidase activity,Actinomyces israeli,0
same,Aminopeptidase activity,Fusobacterium nucleatum,0
same,Aminopeptidase activity,Fusobacterium nucleatum; [16],1 nmol
same,Aminopeptidase activity,S. mutans,0
same,Aminopeptidase activity,V. parvula,0
same,Aminopeptidase activity,"""Anaerobic vibrio""",0
same,Aminopeptidase activity,A. seminis,0
same,Aminopeptidase activity,B. denticola; [17],4 nmol
same,Aminopeptidase activity,B. melaninogenicus; [18],4 nmol
same,Aminopeptidase activity,C. sputigena; [19],8 nmol
same,Aminopeptidase activity,B. corporis; [20],0 nmol
same,Aminopeptidase activity,B. intermedius; [21],22 nmol
"NCC(=O)N1CCC[C@H]1C(=O)O [Gly-Pro, Glycyl-proline] (H-Gly-Pro-OH)",Aminopeptidase activity,Capnocytophaga sp.,2
same,Aminopeptidase activity,B. mel. ss. intermedius,15 and 22 and 27
same,Aminopeptidase activity,C. ochracea,11
same,Aminopeptidase activity,[1],19
same,Aminopeptidase activity,B. levii,22 and 17
same,Aminopeptidase activity,Veillonella alcalesens,0
same,Aminopeptidase activity,L. fermentum,5
same,Aminopeptidase activity,A. suis,0
same,Aminopeptidase activity,S. salivarius,105 and 90
same,Aminopeptidase activity,F. periodonticum,1
same,Aminopeptidase activity,A. equuli,0
same,Aminopeptidase activity,Campylobacter sputorum,1
same,Aminopeptidase activity,Veillonella sp.,0
same,Aminopeptidase activity,Eikenella corrodens,0
same,Aminopeptidase activity,S. sanguis,75 and 109
same,Aminopeptidase activity,A. viscosus,0
same,Aminopeptidase activity,Actinomyces israeli,0
same,Aminopeptidase activity,Fusobacterium nucleatum,0
same,Aminopeptidase activity,Fusobacterium nucleatum; [16],0 nmol
same,Aminopeptidase activity,S. mutans,22
same,Aminopeptidase activity,"""Anaerobic vibrio""",0
same,Aminopeptidase activity,A. seminis,0
same,Aminopeptidase activity,B. denticola,17
same,Aminopeptidase activity,B. melaninogenicus,26
same,Aminopeptidase activity,C. sputigena,16
same,Aminopeptidase activity,B. corporis,54
same,Aminopeptidase activity,B. intermedius,10
"C[C@H](NC(=O)[C@@H](N)CCCCN)C(=O)O [Lys-Ala, Lysyl-alanine] (H-Lys-Ala-OH)",Aminopeptidase activity,Capnocytophaga sp.,14
same,Aminopeptidase activity,C. ochracea,50
same,Aminopeptidase activity,[1],54
same,Aminopeptidase activity,Bacteroides gingivalis,78 and 77 and 50 and 63 and 46 and 43
same,Aminopeptidase activity,B. levii,45 and 48
same,Aminopeptidase activity,Veillonella alcalesens,0
same,Aminopeptidase activity,L. fermentum,2
same,Aminopeptidase activity,A. suis,0
same,Aminopeptidase activity,F. periodonticum,0
same,Aminopeptidase activity,Haemophilus aphrophilus,0
same,Aminopeptidase activity,Lactobacillus casei,0
same,Aminopeptidase activity,A. equuli,0
same,Aminopeptidase activity,Campylobacter sputorum,0
same,Aminopeptidase activity,Veillonella sp.,0
same,Aminopeptidase activity,Eikenella corrodens,0
same,Aminopeptidase activity,A. viscosus,0
same,Aminopeptidase activity,Actinomyces israeli,0
same,Aminopeptidase activity,Fusobacterium nucleatum; [16],0 nmol
same,Aminopeptidase activity,S. mutans,2
same,Aminopeptidase activity,V. parvula,0
same,Aminopeptidase activity,"""Anaerobic vibrio""",0
same,Aminopeptidase activity,A. seminis,0
same,Aminopeptidase activity,B. denticola,89
same,Aminopeptidase activity,B. melaninogenicus,78
same,Aminopeptidase activity,C. sputigena,36
same,Aminopeptidase activity,B. corporis,68
same,Aminopeptidase activity,B. intermedius,50
CC(C)[C@H](NC(=O)[C@H](CCCNC(=N)N)NC(=O)N[C@@H](Cc1ccccc1)C(=O)O)C(=O)N[C@H](C=O)CCCNC(=N)N [antipain] ({Phe-CO}-Arg-Val-Arg-aldehyde),Inhibition of B. gingivalis N-CBz-glycyl-glycyl-arginylpeptidase enzyme activity,[2],inhibited
[Cd] [cadmium],Sensitivity of B. gingivalis enzyme activity to heavy metal ions,[2],sensitive
same,Inhibition of B. gingivalis enzyme activity by metals,[2],inhibited
[Co] [cobalt],Inhibition of B. gingivalis enzyme activity by metals,[2],inhibited
[Cu] [copper],Sensitivity of B. gingivalis enzyme activity to heavy metal ions,[2],sensitive
same,Inhibition of B. gingivalis enzyme activity by metals,[2],inhibited
CC(=O)N[C@@H](CC(C)C)C(=O)N[C@@H](CC(C)C)C(=O)N[C@H](C=O)CCCNC(=N)N [leupeptin],Inhibition of B. gingivalis N-CBz-glycyl-glycyl-arginylpeptidase enzyme activity,[2],inhibited
O=C(O)c1cc[c]([Hg][Cl])cc1 [p-chloromercuribenzoic acid],Inhibition of B. gingivalis N-CBz-glycyl-glycyl-arginylpeptidase enzyme activity,[2],inhibited
O=S(=O)(F)Cc1ccccc1 [phenylmethylsulfonylfluoride],Inhibition of B. gingivalis N-CBz-glycyl-glycyl-arginylpeptidase enzyme activity,[2],inhibited
[Zn] [zinc],Inhibition of B. gingivalis enzyme activity by metals,[2],inhibited
mercury,Sensitivity of B. gingivalis enzyme activity to heavy metal ions,[2],sensitive
same,Inhibition of B. gingivalis enzyme activity by metals,[2],inhibited
